Usually melting point stands for the temperature, or range, at which the solid turns liquid.

For 84 compounds, melting point results are on record in a melting point compilation (Tetko et al.; mined from patent text by program, amines drawn as free bases though some values may be those of a salt).

With `COc1cc2c(cc1O)CCN(c1cc(N)c3cc(OC)c(OC)cc3n1)C2`, the melting point is 250 to 251 °C.
In turn, `Cc1cc(-c2cc(F)c(F)cc2-c2ccc(S(N)(=O)=O)cc2)ccc1Cl` came in with a melting point of 142 to 143 °C.
The figure for `CCOC(=O)c1nc2c(=O)[nH]c3cc(C(F)(F)F)ccc3n2c1C` is more than 250 °C.
The figure for `COc1ccc(C(=O)C#Cc2ccc3c(c2)c(=O)n(Cc2ccc(F)cc2)c(=O)n3C)cc1` is 240 °C; for `O=c1ccn(-c2cccc(F)c2)nc1-c1ccnn1-c1ccccc1` it is 170 to 171 °C.
The figure for `COC(=O)c1csc(NC(=O)c2ccc(C#N)cc2)n1` is 228 °C; for `C[C@@H]1C[C@H](OC(=O)C(C)(C)Oc2ccc(C(=O)c3ccc(Cl)cc3)cc2)CC(C)(C)C1` (relative stereo) it is 65 °C; for `CN1C(=O)CCC2(C)c3ccc(CSc4ccccc4)cc3CCC12` (centres undefined) it is 144 to 146 °C.
The compound `CC(=O)c1cc(C)cc(Br)c1O` showed a melting point of 81 to 82 °C.
Under `CC(C)=CCn1c(Cl)nc2c1c(=O)[nH]c(=O)n2C` stands 226 to 228 °C.
With `O=S(=O)(Nc1cccc(Cl)c1)c1cc(S(=O)(=O)Nc2cccc(Cl)c2)c2cc(O)ccc2c1`, the melting point fell in the range of 206 to 208 °C.
`CN1C(=O)C(C(=O)Nc2ccc(F)cc2)Sc2ccccc21` (centres undefined) yielded a melting point of 158 to 160 °C.
The figure for `CCc1cc2c([nH]c1=O)c(C)cc1cc(CBr)oc12` is 237 to 240 °C; for `CCCCCCCC(=O)N(C)Cc1cccc(-c2ccc(CC3SC(=O)NC3=O)cc2C)c1` (centres undefined) it is 130 °C.
Consider `CCOc1ccc2c(c1)n(-c1ccccn1)c(=O)n2S(=O)(=O)c1ccc(C(=O)O)cc1OC`, for which the melting point was 241 °C.
The figure for `O=C1c2ccccc2C(=O)N1CC(=O)N1c2ccccc2N(CCCc2ccccc2)C(=O)[C@H]2CCC[C@H]21` (relative stereo) is 192 to 193 °C.
Under `Cn1cc(C2=C(c3cn(CCCO)c4ccccc34)C(=O)NC2=O)c2ccccc21` stands 185 to 187 °C; under `O=C(C=Cc1c(Cl)cccc1Cl)N1CCc2c([nH]c3ccccc23)C1c1ccc2c(c1)OCO2` (centres undefined), 118 to 120 °C.
The figure for `CSc1cc(-c2ccccc2)nc(-c2cccc(CCl)c2)c1` is 56.8 °C; for `CC1(N2C(=O)c3ccc(CNC(=O)c4ccc(S(C)(=O)=O)cc4)cc3C2=O)CCC(=O)NC1=O` (centres undefined) it is 166 to 168 °C.
For `O=CN1CCN(c2nc3ccc(Cl)ccc-3n2)CC1`, the melting point lay in the range of 228 to 229 °C.
Under `CCCCc1nc(Cl)c(C(=O)O)n1Cc1ccc2oc(-c3ccccc3C(=O)O)c(Br)c2c1` stands 148 to 152 °C.
Under `COc1cc(Cl)ccc1-c1ccc(C(C)=O)cc1[N+](=O)[O-]` stands 104 to 106 °C; under `COc1ccc(C2=NN(CC(=O)c3ccccc3OC)C(=O)[C@H]3CCCC[C@@H]23)cc1OC` (relative stereo), 93 to 96 °C.
Under `CCN1CNS(=O)(=O)c2cc(Oc3cccc(C(C)O)c3)ccc21` (centres undefined) stands 60 °C; under `Nc1nc(N)c(CCCNc2ccc(C(=O)N[C@@H](CCC(=O)O)C(=O)O)c(Cl)c2)c(=O)[nH]1`, 150 to 178 °C.
Turning to `COC(=O)CCC(=O)c1ccc(NS(C)(=O)=O)cc1`, the melting point lay within 181 to 183 °C.
For `Cc1cc2nc3ccc(C#N)cn3c(=O)c2s1`, the melting point is 258 to 259 °C.
Under `O=C1Cc2cc(OCCN3CCC(Cc4ccc(F)cc4)CC3)ccc2N1` stands 149 to 150 °C; under `NC1=NS(=O)N=C1NCCCN1c2ccccc2CCc2ccccc21` (centres undefined), 227 to 230 °C; under `O=C(NCc1cccs1)Nc1cc(N2CC(c3ccccc3)CC2=O)ccn1` (centres undefined), 179 to 180 °C.
The figure for `c1ccc(C2=NN=C(c3ccccc3)NN2)cc1` is 177 to 178 °C.
Under `CC1N=C(c2ccccc2)c2cc(Br)ccc2NC1=O` (centres undefined) stands 210 to 212 °C.
As for `CC(=O)c1ccc(Cc2c(Cl)cc(NN=Cc3ccccc3)cc2Cl)cc1`, the melting point was in the range of 137 to 139 °C.
Under `COc1ccccc1-c1n[nH]c2ccccc12` stands 99 °C; under `Cc1cc(CCCCCOc2c(C)cc(-c3cn(C)nn3)cc2C)on1`, 117 to 118 °C; under `CCCCOc1ccc(C(=O)Nc2ccc3cc(CN4CCCC4CC(C)C)cnc3c2C)cc1` (centres undefined), 128 to 130 °C.
With `CCN(CCCOc1ccc(C(=O)O)cc1)c1ccc(Cl)cc1`, the melting point was in the range of 146 to 149 °C.
The figure for `C=CCN1C(=O)CN(c2ccc(Cc3ccccc3)cc2)C1=S` is 132 °C.
The figure for `CCCn1c(N)c(N=Cc2ccc(OCC(=O)O)cc2)c(=O)n(CCC)c1=O` is 179 to 180 °C; for `O=C(CC(=O)c1cc(O)ccc1O)c1ccc(OCc2ccccc2)c(OCc2ccccc2)c1` it is 196 to 197 °C.
Under `CC1(C)Oc2ccc(C#N)cc2[C@@H](Nc2cc(Cl)ncn2)[C@@H]1O` (relative stereo) stands 204 to 208 °C; under `O=C(Nc1cccc2[nH]ccc12)c1ccccc1OCCCCBr`, 135 °C; under `COc1ccc(Oc2cnc(N)nc2N)c(C(C)C)c1`, 170 to 171 °C.
Consider `CC(C)OC(=O)C1CCCN1S(=O)(=O)c1ccc(N2CCC(NCC(O)COc3cccc4[nH]c(=O)[nH]c34)CC2)cc1` (centres undefined), for which the melting point lay within 74 to 83 °C.
Under `CCN(CC)c1ccc(C2(N(c3ccc(NC(C)=O)cc3)c3ccc(NC(C)=O)cc3)OC(=O)c3ccccc32)c(C)c1` (centres undefined) stands 179 to 182 °C.
The figure for `CNC(=O)c1cnn2c(C(=O)N3CCNCC3)c(Cc3cccc(F)c3C)c(-c3ccccc3)c2c1` is 208 to 210 °C; for `COC(=O)C(=CN(C)C)c1sc(Cl)nc1COc1ccccc1` it is 114 °C.
The figure for `NC1=NC(c2cccc(-c3cccnc3F)c2)(c2ccc3c(c2)OCCO3)C2=NCCCN12` (centres undefined) is 125 to 140 °C; for `COc1c(-c2ccc3cc(NS(C)(=O)=O)ccc3c2)cc(NC(N)=O)cc1C(C)(C)C` it is more than 300 °C.
With `CC(C)N1CC=C(c2c[nH]c3ccccc23)CC1`, the melting point came out at 178 °C.
The figure for `CC1=C(C(=O)OC(C)(C)C)C(c2ccc(F)cc2)C(C(=O)OC(C)(C)C)=C(C)N1` is 149 to 150 °C; for `Cn1c(Br)c(Br)c(C#N)c1Br` it is 151 to 152 °C; for `CCCc1nc2c(N)nc3ccccc3c2n1CC1(O)CCN(C)CC1` it is 241 to 242 °C.
The figure for `Cc1c(Oc2ccccc2)cccc1Oc1ccccc1` is 39 to 41 °C; for `Cc1cccc(OC(F)F)c1NC(=O)CCl` it is 85 to 86 °C; for `CC(C)(C)c1cc(SCc2cccc(C#N)c2)cc(C(C)(C)C)c1O` it is 61 to 63 °C.
`CC(C)(C)CC(C)(C)c1cc(-n2nc3ccc(Sc4ccccc4)cc3n2)c(O)c(C(C)(C)c2ccccc2)c1`: the melting point fell in the range of 124 to 125 °C.
The figure for `CC(C)(C)OC(=O)N1CCn2ccc(C#N)c2C1` is 97 °C.
Consider `COc1ccc(Cl)cc1C(=O)Cl`, for which the melting point is 59 to 60 °C.
The figure for `O=C(NN=Cc1ccc(Cl)cc1)c1cccnc1` is 188 to 190 °C.
For `CC(=O)OCCN(CCOC(C)=O)c1ccc(C=CC=Cc2ccc([N+](=O)[O-])cc2)cc1`, the melting point was in the range of 195 to 198 °C.
The figure for `CCc1cc(C(=O)C(c2ccc(O)cc2)c2ccc(O)cc2)cc(C(C)(c2ccc(O)cc2)c2ccc(O)cc2)c1` is 144 to 146 °C; for `COc1cc(C)c2c(c1)[C@@H]1c3ccccc3N[C@@H]1C2` (relative stereo) it is 104 °C; for `Cc1ccc(C(=O)C2=C(O)C(=O)N(c3ccc(C)nn3)C2c2cccc(C(F)(F)F)c2)cc1` (centres undefined) it is 232 °C.
Under `Cn1cccc1C=CC(=O)NCCCCCC(=O)NO` stands 103 to 105 °C; under `OC1(CNc2ccnc3cc(Cl)ccc23)CCCCC1`, 205 to 207 °C; under `O=C(Nc1nc(Cl)c(C(=O)NCc2ccccc2)s1)c1ccccc1`, 247 to 249 °C.
The figure for `Cn1c(C(F)(F)F)cc(=O)n(-c2cc(N)c(Cl)cc2F)c1=O` is 132 to 135 °C; for `CC(=O)NC[C@H]1CN(c2ccc(N3CCC(N)(C#N)CC3)c(F)c2)C(=O)O1` it is 94 to 96 °C.
Compound `Cc1cccc(NC(=O)NCC(=O)N2[C@@H](C(=O)OC(C)(C)C)CC[C@H]2c2ccccc2)c1` (racemic) yielded a melting point of 156 °C.
The compound `Cc1ccc(S(=O)(=O)OCC2CCN(C(=O)c3cccc(C)c3)CC2)cc1` registered a melting point of 68 to 70 °C.
The figure for `C#CCN1CCCc2ccc(OC(=O)NCCCCCCC)cc21` is 54 °C; for `Cc1[nH]c2ccc(C(=O)NS(=O)(=O)CCCCl)cc2c1Cc1ccc(Cl)cc1Cl` it is 95.5 to 96.2 °C.
The figure for `Cc1c(O)cc(O)c(C)c1C(=O)OCc1ccc([N+](=O)[O-])cc1` is 164 to 166 °C.
Under `O=S(=O)(Nc1onc(-c2ccccc2)c1Br)c1ccccc1` stands 113 to 115 °C; under `CCCCCCCCCCN(C[C@H]1CCC[C@H](CN(CCCCCCCCCC)C(=O)Nc2ccc(N(C)C)cc2)C1)C(=O)Nc1ccc(N(C)C)cc1` (relative stereo), 115 to 117 °C.
For `O=C(/C=C/c1c[nH]c2ccc(OCc3ccccc3)cc12)c1ccncc1`, the melting point is 218 to 221 °C.
The figure for `Cc1cccc(NC(=O)C2=C(O)c3ccccc3N(c3ccccc3)C2)n1` is 74 to 77 °C; for `Cc1c(C(=O)O)cnn1-c1ccc(OC(F)(F)F)cc1` it is 176 to 178 °C; for `NCc1ccc(C2CCN(c3c(F)c(N)c4c(=O)c(C(=O)O)cn(C5CC5)c4c3F)C2)cc1` (centres undefined) it is 225 to 227 °C.
Under `COc1ccc(S(=O)(=O)C(CC(=O)NO)c2ccccc2)cc1` (centres undefined) stands 157 to 159 °C; under `Nc1cccc(-c2nc3ncccc3o2)c1`, 179 to 180 °C; under `CC(C)(CC(O)(C(=O)Nc1ccc([N+](=O)[O-])c(C(F)(F)F)c1)C(F)(F)F)c1ccccc1` (centres undefined), 119 to 120 °C.
